Consider six compounds from patent US9062124B2, “GIP-based mixed agonists for treatment of metabolic disorders and obesity” (priority 2008, dated 2015).

Where a SMILES comes first, the peptide text is derived from it. Bridges are numbered along the chain shown (N, C = ends). [ ]: non-standard residue; d: D form. Aib = CC(C)(N)C(=O)O

Common to all, as to format: cell-based
Assay [1] has as its target T1, glucagon receptor (Homo sapiens, UniProt P47871).
T1 construct: expressed in transfected cells; host or cells: HEK293
Nature of the assay: cAMP synthesis functional assay (firefly luciferase reporter in HEK293 cells), glucagon receptor. To be noted: for EC50: Glucagon Receptor EC50, nM.

In assay [2] the target is T2, GLP-1 receptor (Homo sapiens, UniProt P43220).
T2 construct: expressed in transfected cells; host or cells: HEK293
Nature of the assay: cAMP synthesis functional assay (firefly luciferase reporter in HEK293 cells), GLP-1 receptor. To be noted: for EC50: GLP-1 Receptor EC50, nM.

Assay [3] has as its target T3, GIP receptor (Homo sapiens, UniProt P48546).
T3 construct: expressed in transfected cells; host or cells: HEK293
T3 sequence (P48546 22-466): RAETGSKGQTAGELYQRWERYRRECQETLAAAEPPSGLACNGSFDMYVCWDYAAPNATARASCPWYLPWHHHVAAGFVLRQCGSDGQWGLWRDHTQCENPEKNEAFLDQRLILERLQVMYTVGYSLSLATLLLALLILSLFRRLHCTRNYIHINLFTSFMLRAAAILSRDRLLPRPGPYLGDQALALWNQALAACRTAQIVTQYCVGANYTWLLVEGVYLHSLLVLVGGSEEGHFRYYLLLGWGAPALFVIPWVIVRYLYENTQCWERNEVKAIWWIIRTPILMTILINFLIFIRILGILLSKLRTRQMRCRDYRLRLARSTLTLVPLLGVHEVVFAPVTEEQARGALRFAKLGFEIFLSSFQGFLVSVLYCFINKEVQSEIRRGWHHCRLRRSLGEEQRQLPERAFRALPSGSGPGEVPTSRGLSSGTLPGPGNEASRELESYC
Nature of the assay: cAMP synthesis functional assay (firefly luciferase reporter in HEK293 cells), GIP receptor.

Where [4] appears, read: Table 1, relative to the native hormone of the indicated receptor.

T2 sequence (P43220 24-463, species assumed): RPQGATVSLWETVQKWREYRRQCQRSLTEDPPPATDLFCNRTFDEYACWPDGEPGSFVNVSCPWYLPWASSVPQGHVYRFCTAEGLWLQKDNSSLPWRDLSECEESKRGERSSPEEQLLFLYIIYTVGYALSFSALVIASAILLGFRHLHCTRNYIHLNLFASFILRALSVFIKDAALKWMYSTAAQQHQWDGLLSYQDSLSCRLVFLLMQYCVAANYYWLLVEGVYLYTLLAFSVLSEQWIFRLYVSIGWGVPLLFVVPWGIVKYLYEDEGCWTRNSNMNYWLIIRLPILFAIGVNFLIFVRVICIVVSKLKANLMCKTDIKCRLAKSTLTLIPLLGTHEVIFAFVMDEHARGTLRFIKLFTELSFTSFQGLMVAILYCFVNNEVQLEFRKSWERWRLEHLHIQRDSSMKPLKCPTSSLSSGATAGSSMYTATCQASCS
T1 sequence (P47871 26-477): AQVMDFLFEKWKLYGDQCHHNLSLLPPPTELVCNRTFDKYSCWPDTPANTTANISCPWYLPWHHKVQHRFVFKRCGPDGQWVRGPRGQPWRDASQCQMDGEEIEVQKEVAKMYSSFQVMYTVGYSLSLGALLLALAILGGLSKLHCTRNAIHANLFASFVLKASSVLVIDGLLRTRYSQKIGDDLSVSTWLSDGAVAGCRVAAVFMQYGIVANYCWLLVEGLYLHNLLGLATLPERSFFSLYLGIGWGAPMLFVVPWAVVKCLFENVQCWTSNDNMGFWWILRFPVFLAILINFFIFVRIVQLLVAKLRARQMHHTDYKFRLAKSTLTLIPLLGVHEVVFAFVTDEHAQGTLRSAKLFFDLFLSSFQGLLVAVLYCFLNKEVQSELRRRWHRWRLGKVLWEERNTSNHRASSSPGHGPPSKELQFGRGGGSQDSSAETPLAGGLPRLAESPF

For the compound `CC[C@H](C)[C@H](NC(=O)[C@H](CO)NC(=O)[C@H](Cc1ccc(O)cc1)NC(=O)[C@H](CC(=O)O)NC(=O)[C@H](CO)NC(=O)[C@@H](NC(=O)[C@H](Cc1ccccc1)NC(=O)[C@@H](NC(=O)CNC(=O)[C@H](CCC(N)=O)NC(=O)[C@H](CO)NC(=O)[C@@H](N)Cc1ccc(O)cc1)[C@@H](C)O)[C@@H](C)O)C(=O)N[C@@H](Cc1ccc(O)cc1)C(=O)N[C@@H](CC(C)C)C(=O)N[C@@H](CC(=O)O)C(=O)N[C@@H](CCC(=O)O)C(=O)N[C@H]1CCC(=O)NCCCC[C@@H](C(=O)N[C@@H](CCC(=O)O)C(=O)N[C@@H](Cc2ccccc2)C(=O)N[C@H](C(=O)N[C@@H](CC(N)=O)C(=O)N[C@@H](Cc2c[nH]c3ccccc23)C(=O)N[C@@H](CC(C)C)C(=O)N[C@@H](CC(C)C)C(=O)N[C@@H](C)C(=O)NCC(=O)NCC(=O)N2CCC[C@H]2C(=O)N[C@@H](CO)C(=O)N[C@@H](CO)C(=O)NCC(=O)N[C@@H](C)C(=O)N2CCC[C@H]2C(=O)N2CCC[C@H]2C(=O)N2CCC[C@H]2C(=O)N[C@@H](CO)C(N)=O)C(C)C)NC(=O)[C@H](C)NC(=O)[C@H](C)NC1=O` [mt-167] (H-YSQGTFTSDYSIYLDEEAAKEFVNWLLAGGPSSGAPPPS-NH2; lactam 17-20; N-terminus assumed), the “Glucagon Receptor relative activity” value in assay [1] (setting [4]) was 34.53%. In assay [2] (setting [4]), the “GLP-1 Receptor relative activity” value came to 7.94%. For the same compound, the “GIP Receptor relative activity” value in assay [3] (setting [4]) was 5.01%.

Compound `CC[C@H](C)[C@H](NC(=O)[C@H](CO)NC(=O)[C@H](Cc1ccc(O)cc1)NC(=O)[C@H](CC(=O)O)NC(=O)[C@H](CO)NC(=O)[C@@H](NC(=O)[C@H](Cc1ccccc1)NC(=O)[C@@H](NC(=O)CNC(=O)[C@H](CCC(N)=O)NC(=O)[C@H](CO)NC(=O)[C@@H](N)Cc1ccc(O)cc1)[C@@H](C)O)[C@@H](C)O)C(=O)N[C@@H](Cc1ccc(O)cc1)C(=O)N[C@@H](CC(C)C)C(=O)N[C@@H](CC(=O)O)C(=O)N[C@@H](CCC(=O)O)C(=O)N[C@@H](CCC(N)=O)C(=O)N[C@H]1CCCCNC(=O)CC[C@@H](C(=O)N[C@@H](Cc2ccccc2)C(=O)N[C@H](C(=O)N[C@@H](CC(N)=O)C(=O)N[C@@H](Cc2c[nH]c3ccccc23)C(=O)N[C@@H](CC(C)C)C(=O)N[C@@H](CC(C)C)C(=O)N[C@@H](C)C(=O)NCC(=O)NCC(=O)N2CCC[C@H]2C(=O)N[C@@H](CO)C(=O)N[C@@H](CO)C(=O)NCC(=O)N[C@@H](C)C(=O)N2CCC[C@H]2C(=O)N2CCC[C@H]2C(=O)N2CCC[C@H]2C(=O)N[C@@H](CO)C(N)=O)C(C)C)NC(=O)[C@H](CCCCN)NC(=O)[C@H](C)NC1=O` [mt-168] (H-YSQGTFTSDYSIYLDEQKAKEFVNWLLAGGPSSGAPPPS-NH2; lactam 18-21; N-terminus assumed) came in with an EC50 in assay [1] (Table 1) of 2.61 nM. Besides, the “Glucagon Receptor relative activity” value in assay [1] (setting [4]) is 4.79%. Also, in assay [2] (setting [4]), the “GLP-1 Receptor relative activity” value stood at 1.45%. Moreover, in assay [3] (setting [4]), the “GIP Receptor relative activity” value stood at 0.32%.

Turning to `CC[C@H](C)[C@H](NC(=O)[C@H](CO)NC(=O)[C@H](Cc1ccc(O)cc1)NC(=O)[C@H](CC(=O)O)NC(=O)[C@H](CO)NC(=O)[C@@H](NC(=O)[C@H](Cc1ccccc1)NC(=O)[C@@H](NC(=O)CNC(=O)[C@H](CCC(N)=O)NC(=O)C(C)(C)N)[C@@H](C)O)[C@@H](C)O)C(=O)N[C@@H](Cc1ccc(O)cc1)C(=O)N[C@@H](CC(C)C)C(=O)N[C@@H](CC(=O)O)C(=O)N[C@H]1CCC(=O)NCCCC[C@@H](C(=O)N[C@@H](CCC(=O)O)C(=O)N[C@@H](Cc2ccccc2)C(=O)N[C@H](C(=O)N[C@@H](CC(N)=O)C(=O)N[C@@H](Cc2c[nH]c3ccccc23)C(=O)N[C@@H](CC(C)C)C(=O)N[C@@H](CC(C)C)C(=O)N[C@@H](C)C(=O)NCC(N)=O)C(C)C)NC(=O)[C@H](C)NC(=O)[C@H](C)NC(=O)[C@H](CCC(N)=O)NC1=O` [mt-198] (H-[Aib]QGTFTSDYSIYLDEQAAKEFVNWLLAG-NH2; lactam 15-19; N-terminus assumed), the “Glucagon Receptor relative activity” value in assay [1] (setting [4]) stood at 0.53%. Further, in assay [2] (setting [4]), the “GLP-1 Receptor relative activity” value was 0.17%. In assay [3] (setting [4]), the “GIP Receptor relative activity” value turned out to be 0.02%.

Regarding `CC[C@H](C)[C@H](NC(=O)[C@H](CO)NC(=O)[C@H](Cc1ccc(O)cc1)NC(=O)[C@H](CC(=O)O)NC(=O)[C@H](CO)NC(=O)[C@@H](NC(=O)[C@H](Cc1ccccc1)NC(=O)[C@@H](NC(=O)CNC(=O)[C@H](CCC(N)=O)NC(=O)C(C)(C)NC(=O)[C@@H](N)Cc1ccc(O)cc1)[C@@H](C)O)C(C)C)C(=O)N[C@@H](Cc1ccc(O)cc1)C(=O)N[C@@H](CC(C)C)C(=O)N[C@@H](CC(=O)O)C(=O)N[C@H]1CCC(=O)NCCCC[C@@H](C(=O)N[C@@H](CCC(=O)O)C(=O)N[C@@H](Cc2ccccc2)C(=O)N[C@H](C(=O)N[C@@H](CC(N)=O)C(=O)N[C@@H](Cc2c[nH]c3ccccc23)C(=O)N[C@@H](CC(C)C)C(=O)N[C@@H](CC(C)C)C(=O)N[C@@H](C)C(=O)NCC(=O)NCC(=O)N2CCC[C@H]2C(=O)N[C@@H](CO)C(=O)N[C@@H](CO)C(=O)NCC(=O)N[C@@H](C)C(=O)N2CCC[C@H]2C(=O)N2CCC[C@H]2C(=O)N2CCC[C@H]2C(=O)N[C@@H](CO)C(=O)N[C@@H](CS)C(N)=O)C(C)C)NC(=O)[C@H](C)NC(=O)[C@H](C)NC(=O)[C@H](CCC(N)=O)NC1=O` [mt-199] (H-Y[Aib]QGTFVSDYSIYLDEQAAKEFVNWLLAGGPSSGAPPPSC-NH2; lactam 16-20; N-terminus assumed), the concentration for a half-maximal effect (EC50) in assay [1] (Table 1) was determined as 0.214 nM; in assay [2] (Table 1) it was 2.8 nM; in assay [3] (GIP Receptor EC50, nM, Table 1) it was 0.526 nM. The “Glucagon Receptor relative activity” value in assay [1] (setting [4]) was found to be 31.31%. In addition, the “GLP-1 Receptor relative activity” value in assay [2] (setting [4]) is 1.04%. For the same compound, the “GIP Receptor relative activity” value in assay [3] (setting [4]) is reported as 5.51%.

On to `CC(C)C[C@H](NC(=O)[C@H](CC(C)C)NC(=O)[C@H](Cc1c[nH]c2ccccc12)NC(=O)[C@H](CC(N)=O)NC(=O)[C@@H](NC(=O)[C@H](Cc1ccccc1)NC(=O)[C@H](CCC(=O)O)NC(=O)[C@@H]1CCCCNC(=O)CC[C@H](NC(=O)[C@H](CC(=O)O)NC(=O)[C@H](CC(C)C)NC(=O)[C@H](Cc2ccc(O)cc2)NC(=O)[C@@H]2CCCCNC(=O)CC[C@H](NC(=O)[C@H](CO)NC(=O)[C@@H](NC(=O)[C@H](Cc3ccccc3)NC(=O)[C@@H](NC(=O)CNC(=O)[C@H](CCC(N)=O)NC(=O)C(C)(C)NC(=O)[C@@H](N)Cc3ccc(O)cc3)[C@@H](C)O)[C@@H](C)O)C(=O)N[C@@H](Cc3ccc(O)cc3)C(=O)N[C@@H](CO)C(=O)N2)C(=O)N[C@@H](CCC(N)=O)C(=O)N[C@@H](C)C(=O)N[C@@H](C)C(=O)N1)C(C)C)C(=O)N[C@@H](C)C(=O)NCC(=O)NCC(=O)N1CCC[C@H]1C(=O)N[C@@H](CO)C(=O)N[C@@H](CO)C(=O)NCC(=O)N[C@@H](C)C(=O)N1CCC[C@H]1C(=O)N1CCC[C@H]1C(=O)N1CCC[C@H]1C(=O)N[C@@H](CO)C(=O)N[C@@H](CS)C(N)=O` [mt-209] (H-Y[Aib]QGTFTSEYSKYLDEQAAKEFVNWLLAGGPSSGAPPPSC-NH2; lactam 9-12, 16-20; N-terminus assumed), for which the “Glucagon Receptor relative activity” value in assay [1] (setting [4]) is 0.90%. The “GLP-1 Receptor relative activity” value in assay [2] (setting [4]) is listed as 1.33%. The “GIP Receptor relative activity” value in assay [3] (setting [4]) is recorded as 1.42%.

On to `CC[C@H](C)[C@H](NC(=O)[C@H](CO)NC(=O)[C@H](Cc1ccc(O)cc1)NC(=O)[C@H](CC(=O)O)NC(=O)[C@H](CO)NC(=O)[C@@H](NC(=O)[C@H](Cc1ccccc1)NC(=O)[C@@H](NC(=O)CNC(=O)[C@H](CCC(N)=O)NC(=O)C(C)(C)NC(=O)[C@@H](N)Cc1ccc(O)cc1)[C@@H](C)O)[C@@H](C)O)C(=O)N[C@@H](Cc1ccc(O)cc1)C(=O)N[C@@H](CC(C)C)C(=O)N[C@@H](CC(=O)O)C(=O)NC(C)(C)C(=O)N[C@@H](CCC(N)=O)C(=O)N[C@@H](C)C(=O)N[C@@H](C)C(=O)N[C@@H](CCCCN)C(=O)N[C@@H](CCC(=O)O)C(=O)N[C@@H](Cc1ccccc1)C(=O)N[C@H](C(=O)N[C@@H](CC(N)=O)C(=O)N[C@@H](Cc1c[nH]c2ccccc12)C(=O)N[C@@H](CC(C)C)C(=O)N[C@@H](CC(C)C)C(=O)N[C@@H](C)C(=O)NCC(=O)NCC(=O)N1CCC[C@H]1C(=O)N[C@@H](CO)C(=O)N[C@@H](CO)C(=O)NCC(=O)N[C@@H](C)C(=O)N1CCC[C@H]1C(=O)N1CCC[C@H]1C(=O)N1CCC[C@H]1C(=O)N[C@@H](CO)C(=O)N[C@@H](CS)C(N)=O)C(C)C` [mt-241] (H-Y[Aib]QGTFTSDYSIYLD[Aib]QAAKEFVNWLLAGGPSSGAPPPSC-NH2; N-terminus assumed), for which the “Glucagon Receptor relative activity” value in assay [1] (Table 2) is recorded as 3.73%. For the same compound, in assay [2] (Table 2), the EC50 amounted to 0.023 nM and the “GLP-1 Receptor relative activity” value was 130.43%. For the same compound, in assay [3] (Table 2), the “GIP Receptor relative activity” value is listed as 4.37%.
